Key:
[1] = target: T1, EPHA2 (Homo sapiens, UniProt P29317); assay: Kinase selectivity assay; assay type: biochemical; conditions: target EPHA2; read-out: CP1 IC50
T1 construct: ICE Biosciences (Beijing, China), ran the assays
Protocol: (§1) The selectivity of CP1 for PRDX1 was evaluated through kinase selectivity assays against other PRDX family members and a panel of kinases. The experiments were conducted by ICE Biosciences (Beijing, China).

[2] = target: T2, PDGFRA (Homo sapiens, UniProt P16234); assay: Kinase selectivity assay; assay type: biochemical; conditions: target PDGFRA; read-out: CP1 IC50
T2 construct: assay run by ICE Biosciences (Beijing, China)
T2 sequence (P16234 24-1089): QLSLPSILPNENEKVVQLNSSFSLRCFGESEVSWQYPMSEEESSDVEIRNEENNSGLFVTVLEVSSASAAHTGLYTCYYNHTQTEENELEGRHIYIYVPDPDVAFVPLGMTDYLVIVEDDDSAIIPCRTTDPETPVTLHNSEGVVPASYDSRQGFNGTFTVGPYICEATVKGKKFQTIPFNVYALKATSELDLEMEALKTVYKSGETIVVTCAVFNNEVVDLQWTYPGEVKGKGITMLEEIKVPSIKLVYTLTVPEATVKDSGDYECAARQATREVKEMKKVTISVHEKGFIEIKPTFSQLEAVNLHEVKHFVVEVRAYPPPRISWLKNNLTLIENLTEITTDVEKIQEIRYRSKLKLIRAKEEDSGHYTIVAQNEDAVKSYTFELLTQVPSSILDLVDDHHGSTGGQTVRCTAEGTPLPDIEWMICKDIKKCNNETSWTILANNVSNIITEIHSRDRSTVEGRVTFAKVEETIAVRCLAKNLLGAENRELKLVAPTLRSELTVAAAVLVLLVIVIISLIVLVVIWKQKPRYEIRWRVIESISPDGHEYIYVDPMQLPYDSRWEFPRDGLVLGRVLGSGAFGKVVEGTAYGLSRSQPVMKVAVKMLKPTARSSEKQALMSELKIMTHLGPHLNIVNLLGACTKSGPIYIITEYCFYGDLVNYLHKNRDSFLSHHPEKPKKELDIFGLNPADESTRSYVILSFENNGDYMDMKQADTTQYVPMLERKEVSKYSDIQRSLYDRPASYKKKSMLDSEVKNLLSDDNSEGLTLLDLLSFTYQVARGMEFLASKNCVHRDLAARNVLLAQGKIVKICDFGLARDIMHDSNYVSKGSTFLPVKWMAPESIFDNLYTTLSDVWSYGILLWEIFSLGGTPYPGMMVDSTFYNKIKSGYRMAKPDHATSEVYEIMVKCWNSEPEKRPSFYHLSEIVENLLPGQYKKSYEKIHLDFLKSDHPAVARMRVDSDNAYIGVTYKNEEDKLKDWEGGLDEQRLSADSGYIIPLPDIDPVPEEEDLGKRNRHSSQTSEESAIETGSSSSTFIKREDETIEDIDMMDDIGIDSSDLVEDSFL
Protocol: as §1

[3] = target: NTRK1 (Homo sapiens, UniProt P04629); assay: Kinase selectivity assay; assay type: biochemical
Sequence of NTRK1 (P04629 33-796): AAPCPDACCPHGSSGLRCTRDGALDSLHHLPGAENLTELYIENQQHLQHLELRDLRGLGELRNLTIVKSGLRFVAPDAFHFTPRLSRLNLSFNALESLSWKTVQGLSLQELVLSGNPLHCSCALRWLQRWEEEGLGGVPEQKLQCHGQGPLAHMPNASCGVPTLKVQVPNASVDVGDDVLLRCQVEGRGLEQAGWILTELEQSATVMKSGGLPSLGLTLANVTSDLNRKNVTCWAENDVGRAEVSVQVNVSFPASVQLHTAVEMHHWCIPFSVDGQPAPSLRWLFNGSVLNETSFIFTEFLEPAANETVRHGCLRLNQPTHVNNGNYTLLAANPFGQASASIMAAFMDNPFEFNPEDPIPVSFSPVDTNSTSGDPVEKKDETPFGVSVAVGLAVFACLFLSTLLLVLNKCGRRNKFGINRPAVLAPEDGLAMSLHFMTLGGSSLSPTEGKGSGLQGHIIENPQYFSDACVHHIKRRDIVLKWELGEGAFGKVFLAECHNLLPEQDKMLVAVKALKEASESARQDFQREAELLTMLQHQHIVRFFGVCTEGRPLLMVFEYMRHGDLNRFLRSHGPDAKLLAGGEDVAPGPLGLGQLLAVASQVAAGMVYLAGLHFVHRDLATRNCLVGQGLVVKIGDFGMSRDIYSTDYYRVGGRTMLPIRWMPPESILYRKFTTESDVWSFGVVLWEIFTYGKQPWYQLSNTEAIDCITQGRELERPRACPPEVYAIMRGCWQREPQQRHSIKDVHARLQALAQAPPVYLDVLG
Protocol: as §1

[4] = target: T3, BMX (Homo sapiens, UniProt P51813); assay: Kinase selectivity assay; assay type: biochemical; conditions: target BMX; read-out: CP1 IC50
T3 construct: ICE Biosciences (Beijing, China), ran the assays
T3 sequence (P51813 whole entry): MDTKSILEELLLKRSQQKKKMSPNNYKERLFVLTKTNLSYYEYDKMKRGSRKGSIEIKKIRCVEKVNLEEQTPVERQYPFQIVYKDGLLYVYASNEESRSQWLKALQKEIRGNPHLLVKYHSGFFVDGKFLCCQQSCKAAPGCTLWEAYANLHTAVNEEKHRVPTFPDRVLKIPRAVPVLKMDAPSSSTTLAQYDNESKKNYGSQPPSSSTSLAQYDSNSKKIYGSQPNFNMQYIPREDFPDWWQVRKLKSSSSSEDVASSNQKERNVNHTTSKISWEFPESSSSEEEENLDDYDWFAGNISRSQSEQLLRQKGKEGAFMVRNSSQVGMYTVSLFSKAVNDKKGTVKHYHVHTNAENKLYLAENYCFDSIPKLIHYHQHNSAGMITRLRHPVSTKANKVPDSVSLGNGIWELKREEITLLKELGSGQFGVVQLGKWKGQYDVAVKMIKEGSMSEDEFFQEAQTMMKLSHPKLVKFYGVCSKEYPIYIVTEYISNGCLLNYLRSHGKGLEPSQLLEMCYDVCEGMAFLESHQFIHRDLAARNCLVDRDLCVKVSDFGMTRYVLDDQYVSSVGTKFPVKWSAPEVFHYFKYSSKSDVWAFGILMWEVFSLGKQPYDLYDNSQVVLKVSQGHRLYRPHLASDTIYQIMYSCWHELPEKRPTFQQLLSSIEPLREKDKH
Protocol: as §1

[5] = target: T4, EGFR (Homo sapiens, UniProt P00533); assay: Kinase selectivity assay; assay type: biochemical; conditions: target EGFR; read-out: CP1 IC50
T4 construct: ICE Biosciences (Beijing, China), ran the assays
Protocol: as §1

[6] = target: KIT (Homo sapiens, UniProt P10721); assay: Kinase selectivity assay; assay type: biochemical; conditions: target KIT; read-out: CP1 IC50
Sequence of KIT (P10721 26-976): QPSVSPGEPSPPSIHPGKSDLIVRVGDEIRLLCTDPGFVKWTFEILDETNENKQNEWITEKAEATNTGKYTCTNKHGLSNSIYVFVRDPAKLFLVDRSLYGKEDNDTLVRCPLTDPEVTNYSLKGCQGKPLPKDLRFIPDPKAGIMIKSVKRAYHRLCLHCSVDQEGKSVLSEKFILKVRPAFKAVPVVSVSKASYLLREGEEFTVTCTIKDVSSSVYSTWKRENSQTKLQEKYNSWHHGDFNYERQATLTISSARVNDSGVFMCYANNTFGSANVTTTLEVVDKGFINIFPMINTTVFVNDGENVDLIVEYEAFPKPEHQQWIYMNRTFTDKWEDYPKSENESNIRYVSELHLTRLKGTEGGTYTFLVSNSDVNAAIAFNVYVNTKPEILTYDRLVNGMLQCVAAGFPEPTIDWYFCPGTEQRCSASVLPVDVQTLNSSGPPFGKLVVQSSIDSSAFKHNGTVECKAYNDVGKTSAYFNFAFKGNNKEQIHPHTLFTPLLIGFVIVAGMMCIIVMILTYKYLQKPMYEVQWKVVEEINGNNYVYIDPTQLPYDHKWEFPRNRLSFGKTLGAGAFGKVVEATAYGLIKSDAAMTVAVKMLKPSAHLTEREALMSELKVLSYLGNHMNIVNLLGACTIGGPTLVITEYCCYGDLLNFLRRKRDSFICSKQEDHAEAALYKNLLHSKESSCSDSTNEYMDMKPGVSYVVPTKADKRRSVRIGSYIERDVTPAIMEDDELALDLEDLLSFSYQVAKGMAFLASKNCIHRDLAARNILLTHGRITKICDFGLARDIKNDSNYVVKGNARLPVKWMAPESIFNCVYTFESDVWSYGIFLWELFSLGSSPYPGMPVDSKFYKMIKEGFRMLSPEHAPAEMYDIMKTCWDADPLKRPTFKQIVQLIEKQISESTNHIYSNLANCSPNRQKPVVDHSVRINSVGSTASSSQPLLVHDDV
Protocol: as §1

[7] = target: T5, FYN (Homo sapiens, UniProt P06241); assay: Kinase selectivity assay; assay type: biochemical; conditions: target FYN; read-out: CP1 IC50
T5 construct: assay run by ICE Biosciences (Beijing, China)
T5 sequence (P06241 whole entry): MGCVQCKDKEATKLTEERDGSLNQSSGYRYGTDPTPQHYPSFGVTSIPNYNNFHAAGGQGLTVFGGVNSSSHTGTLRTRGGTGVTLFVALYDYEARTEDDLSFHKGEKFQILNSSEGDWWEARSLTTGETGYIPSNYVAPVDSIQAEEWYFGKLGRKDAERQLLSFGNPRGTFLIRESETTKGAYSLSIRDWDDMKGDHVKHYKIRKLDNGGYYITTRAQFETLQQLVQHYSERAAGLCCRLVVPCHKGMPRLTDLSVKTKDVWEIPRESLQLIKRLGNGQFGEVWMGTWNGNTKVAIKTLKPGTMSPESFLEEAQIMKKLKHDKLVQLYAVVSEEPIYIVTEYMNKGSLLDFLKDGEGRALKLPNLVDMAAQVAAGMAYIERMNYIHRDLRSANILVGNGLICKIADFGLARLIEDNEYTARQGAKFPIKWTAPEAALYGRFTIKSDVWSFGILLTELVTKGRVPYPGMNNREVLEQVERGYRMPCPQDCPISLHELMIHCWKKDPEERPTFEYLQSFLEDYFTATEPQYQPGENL
Protocol: as §1

[8] = test system: HepG2 (hepatocellular carcinoma cells); assay: MTT assay; assay type: cell-based; conditions: Homo sapiens, HepG2; MTT, 72 h; mean ± SD, n = 3; read-out: IC50 (μM) HepG2
Protocol: (§2) Cells were seeded in 96-well plates at 5 ×10^4 cells/well and cultured overnight at 37°C under 5% CO2. After medium removal, cells were treated with serially diluted compounds (0.04–163.84 μM) or vehicle control (0.1% DMSO) and incubated for 72 h. Subsequently, 20 μL of MTT solution (5 mg/mL) was added to each well, and incubation was continued for 4 h. Add 150 μL of DMSO and shake for 10 min to fully dissolve the crystal. Finally, the absorbance was measured at 570 nm using a microplate reader. Cell viability was calculated as (ODcompound - ODblank)/(ODvehicle - ODblank) × 100%. The half inhibitory concentration (IC50) was calculated from the dose-response curve using Prism 8.0 software. Three independent replicate experiments were performed.

[9] = test system: HaCaT (immortalised keratinocytes); assay: MTT assay; assay type: cell-based; conditions: Homo sapiens, 72 h, normal cells, mean ± SD, n = 3
Protocol: as §2

[10] = test system: A549 lung cancer cells; assay: MTT assay; assay type: cell-based
Protocol: as §2

[11] = test system: MCF-7 (breast adenocarcinoma cells); assay: MTT assay; assay type: cell-based; conditions: Homo sapiens, MCF7; MTT, 72 h; mean ± SD, n = 3; read-out: IC50 (μM) MCF-7
Protocol: as §2

[12] = test system: HEK293 (embryonic kidney cells); assay: MTT assay; assay type: cell-based; conditions: Homo sapiens, HEK293; MTT, 72 h; normal cells; mean ± SD, n = 3; read-out: IC50 (μM) HEK293
Protocol: as §2

[13] = test system: LO2 (normal liver cells); assay: MTT assay; assay type: cell-based; conditions: Homo sapiens; MTT, 72 h; normal cells; mean ± SD, n = 3; read-out: IC50 (μM) LO2
Protocol: as §2

[14] = test system: BEAS-2B normal lung cells; assay: MTT assay; assay type: cell-based; conditions: Homo sapiens, MTT, 72 h, normal lung cells, mean ± SD, n = 3, read-out: IC50 (μM) BEAS-2B
Protocol: as §2

[15] = target: T6, PRDX1 (Homo sapiens, UniProt Q06830); assay: MST assay; assay type: binding; conditions: MST; mean ± SD, n = 3; read-out: PRDX1 (Kd)
T6 sequence (Q06830 1-199): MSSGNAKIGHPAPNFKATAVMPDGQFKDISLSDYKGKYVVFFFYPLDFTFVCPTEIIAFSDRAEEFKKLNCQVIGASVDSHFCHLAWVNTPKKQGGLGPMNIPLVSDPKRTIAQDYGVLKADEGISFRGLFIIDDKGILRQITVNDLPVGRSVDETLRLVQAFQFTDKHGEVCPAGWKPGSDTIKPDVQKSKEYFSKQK
Protocol: The MST assays were carried out in a buffer composed of 50 mM Tris, 200 mM NaCl, and 0.1% (v/v) TWEEN20. PRDX1 was tagged with the MO-L011 protein labeling kit (RED-NHS second Generation). The diluted compounds were combined with the tagged PRDX1 protein and allowed to stand at room temperature for 5 minutes. Subsequently, the reaction mixture was loaded into capillaries, and measurements were taken using a Monolith NT.115 instrument.

[16] = target: T6, PRDX1; assay: PRDX1 inhibition assay; assay type: biochemical; conditions: mean ± SD, n = 3; read-out: PRDX1 (IC50)
Protocol: The cells were purchased from the American Type Culture Collection (ATCC) (Manassas, VA, United States). Cells were cultured in RPMI-1640 medium supplemented with 10% FBS, 50 units/mL penicillin, and 50 μg/mL streptomycin, and maintained at 37°C in a 5% CO2 humidified culture environment. CPs 1-5 were purchased from WuXi AppTec. Human PRDX1 proteins were purchased from Abcam (Cambridge, MA, United States).
First, […] buffer (20 mM HEPES, 5 mM EDTA, 5 μM cofactor A, 2 μM cofactor B, and 300 μM NADPH) was added to a 96-well plate. The test compounds at the designated concentration (0.02–2 nM, with 1.5-fold dilution) were incubated with PRDX1 at 37°C for 25 min, and then the co-incubated mixture was added to each well to a final concentration of 200 nM PRDX1. Finally, 200 μM H2O2 was added to each well to initiate the enzyme reaction cycle. The oxidation of NADPH was determined by the absorption value at 340 nm. Read plate values for 90 s for one cycle and repeat for 20 cycles. The positive control (celastrol, concentrations 0.06–64 μM) was tested in parallel under identical experimental conditions. Three independent replicate experiments were performed.

T1 sequence (P29317 24-976): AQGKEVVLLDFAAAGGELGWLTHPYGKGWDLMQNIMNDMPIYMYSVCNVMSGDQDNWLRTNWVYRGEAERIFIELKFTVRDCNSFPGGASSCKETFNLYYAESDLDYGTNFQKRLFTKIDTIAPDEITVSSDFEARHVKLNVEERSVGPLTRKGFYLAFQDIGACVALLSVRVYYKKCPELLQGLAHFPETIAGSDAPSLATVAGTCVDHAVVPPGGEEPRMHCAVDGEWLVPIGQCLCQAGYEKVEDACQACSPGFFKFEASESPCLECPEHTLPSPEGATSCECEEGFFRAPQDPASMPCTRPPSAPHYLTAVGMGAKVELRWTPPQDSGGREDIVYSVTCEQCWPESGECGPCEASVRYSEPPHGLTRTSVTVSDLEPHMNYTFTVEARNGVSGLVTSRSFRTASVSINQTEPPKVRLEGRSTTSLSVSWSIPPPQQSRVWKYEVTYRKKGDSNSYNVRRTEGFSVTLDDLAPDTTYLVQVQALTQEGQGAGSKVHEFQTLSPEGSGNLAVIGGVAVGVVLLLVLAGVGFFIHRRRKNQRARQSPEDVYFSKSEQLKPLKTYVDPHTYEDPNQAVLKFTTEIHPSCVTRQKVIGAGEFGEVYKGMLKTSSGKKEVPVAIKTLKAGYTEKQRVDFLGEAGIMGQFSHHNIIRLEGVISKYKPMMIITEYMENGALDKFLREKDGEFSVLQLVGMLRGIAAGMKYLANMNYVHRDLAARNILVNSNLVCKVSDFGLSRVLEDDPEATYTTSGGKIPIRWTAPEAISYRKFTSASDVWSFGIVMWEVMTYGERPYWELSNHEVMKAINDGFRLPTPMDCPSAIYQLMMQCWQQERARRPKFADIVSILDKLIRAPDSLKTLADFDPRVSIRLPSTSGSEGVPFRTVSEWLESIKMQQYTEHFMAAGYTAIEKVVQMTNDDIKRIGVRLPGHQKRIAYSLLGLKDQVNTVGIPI

Question: `CC1=C(CC(=O)/C=C/c2cccc(CO)c2)C(=O)C=C2C1=CC=C1[C@@]2(C)CC[C@@]2(C)C3C[C@](C)(C(=O)CCc4nc(C(O)C(O)O)c(C)nc4C)CC[C@]3(C)CC[C@]12C` (some centres unmarked) [CP1] was tested. Which IC50 [1] did it give?
Answer: > 30 µM

Question: What about the IC50 [2] of the same compound?
Answer: > 30 µM

Question: And the IC50 [3]?
Answer: > 30 µM

Question: What about the IC50 [4] of the same compound?
Answer: > 30 µM

Question: And the IC50 [5]?
Answer: > 30 µM

Question: What about the IC50 [6] of the same compound?
Answer: > 30 µM

Question: What about the IC50 [7] of the same compound?
Answer: > 30 µM

Question: What about the IC50 [8] of the same compound?
Answer: 0.25 ± 0.02 µM

Question: And the IC50 [9]?
Answer: > 100 µM

Question: What about the IC50 ([10]; Homo sapiens, A549, MTT, 72 h, mean ± SD, n = 3, read-out: IC50 (μM) A549) of the same compound?
Answer: 0.22 ± 0.01 µM

Question: And the “improvement of antiproliferative activity against A549 cells compared to celastrol” value ([10]; ratio of IC50 values)?
Answer: approximately 5 fold

Question: And the IC50 [11]?
Answer: 0.27 ± 0.01 µM

Question: And the IC50 [12]?
Answer: > 100 µM

Question: What about the IC50 [13] of the same compound?
Answer: > 100 µM

Question: What about the IC50 [14] of the same compound?
Answer: > 100 µM

Question: And the Kd [15]?
Answer: 0.06 ± 0.001 nM

Question: What about the IC50 [16] of the same compound?
Answer: 0.08 ± 0.01 nM
